In US11738002B2, “Methods of treating neurological and psychiatric disorders” (Sunovion Pharmaceuticals Inc., priority 2020, dated 2023):

Columns and labels:
[1] = tested on: female Lister hooded rats; conditions: rat, in vivo
From the text: (§1) Experimentally naïve rats were housed individually in plastic cages containing bedding. Housing rooms were maintained under a 12/12-hour light/dark cycle at controlled ambient temperature and relative humidity. Animals were allowed to acclimate to laboratory conditions before the beginning of experiments and had free access to water. Access to food was restricted to facilitate training and maintenance of operant behavior with the exception of training of female rats in the MDMA drug discrimination study. Experiments were conducted in operant chambers (MED Associates, Inc., St. Albans, Vt., U.S.A.) located within sound-attenuating, ventilated cubicles. Each chamber was equipped with a stimulus light, lever(s) located near a food receptacle which was connected to a food pellet dispenser. Chambers used for reinstatement studies were also equipped with a Sonalert® tone generator.
The training substance was administered 15 minutes before the session. […] The percentage of total responses on the training drug-appropriate lever and response rates were calculated for each rat.

[2] = tested on: Female Sprague Dawley Rats; assay: withdrawal-induced physical dependence study
Protocol: Animals were not dosed during the withdrawal phase. Dosing in the morning was staggered such that every animal was observed individually on each day.
Body weights were recorded prior to each dosing session on Day −6 to Day 46 and in the morning during the withdrawal phase. Only body weight recorded prior to the morning dosing session was used for statistical analysis. Food and water intake were measured once daily in the morning from Day −6 to Day 46 just prior to dosing, and in the morning of the withdrawal phase. Body temperatures were measured once daily using a rectal probe from Day −6 to Day 46 just prior to dosing, and, immediately prior to body weight measurement during the withdrawal. A detailed observation checklist was used to record any physical or behavioral signs of pharmacological effect during dosing and of drug dependence in the withdrawal phase. Rats were observed on a workbench in their open topped home cages (in the holding room where they were kept throughout the study) for a 2 min period 1 hr after the morning dose during the baseline and dosing phases and twice daily on Day 46 and during the withdrawal phase. […] For all other endpoints, withdrawal begins on Day 47.

[3] = tested on: male SD rats trained to self-administer heroin; assay: self-administration (heroin substitution) test; conditions: Sprague-Dawley, rat, in vivo
From the text: as §1

O=C1CC2(CCCC2)CC(=O)N1CCCCN1CCN(c2ncccn2)CC1 [buspirone]
generalization to MDMA [1]: 37.2±20.4% | weak partial generalization to the cue elicited by MDMA [1]: < 50%

CN1C(=O)CN=C(c2ccccc2)c2cc(Cl)ccc21 [diazepam]
weight of the rats vs vehicle at the end of the dosing phase ([2]; 10/15/20 mg/kg p.o. b.i.d. on Days 1-5/6-18/19-46): 5.4% | withdrawal signs on cessation of dosing ([2]; 10/15/20 mg/kg p.o. b.i.d., 46 days): Physical dependence was demonstrated

CC(=O)Oc1ccc2c3c1O[C@H]1[C@@H](OC(C)=O)C=C[C@H]4[C@@H](C2)N(C)CC[C@@]341 [heroin]
mean number of infusions, heroin acquisition session [3]: 19.0±0.4
